Results as given in patent US20240108740A1, “THERAPEUTIC COMPOSITIONS INCLUDING SPN10 AND USES THEREOF” (Stealth BioTherapeutics Inc., priority 2022, published 2024).
Residues, ends and D or L forms follow the SMILES beside them.

Experiments:
Sprague-Dawley rats = assay: Example 43: cisplatin-induced acute renal injury; assay type: in vivo, rat; conditions: cisplatin 7 mg/kg i.p.
Experimental: Experimental Protocol: Sprague-Dawley rats (350-400 g) will be given a single dose of cisplatin (7 mg/kg) intraperitoneally (i.p.) on Day 1. Subjects will receive peptide conjugates (3 mg/kg) (n=8), aromatic-cationic peptides (an equivalent molar dose of aromatic-cationic peptide based on the concentration of the aromatic-cationic peptide administered in the peptide conjugate treatment group) (n=8), SPN10(s) (an equivalent molar dose of SPN10 based on the concentration of SPN10 administered in the peptide conjugate treatment group) (n=8), SPN10(s) in combination with aromatic-cationic peptides (e.g., an equivalent molar dose of SPN10 based on the concentration of SPN10 administered in the peptide conjugate treatment group and an equivalent molar dose of aromatic-cationic peptide based on the concentration of aromatic-cationic peptide administered in the peptide conjugate treatment group) (n=8) or saline vehicle (n=8) subcutaneously just prior to cisplatin administration, and once daily for 3 additional days. Subjects will be placed in metabolic cages for the final 24 hours of the trial for urine collection. At the end of the trial, blood samples will be withdrawn from tail veins and the kidneys harvested.
Renal function: Renal function will be assessed by measuring blood urea nitrogen (BUN), serum creatinine, urine creatinine, and urine protein. GFR will be estimated from creatinine clearance, which will be determined from serum and urinary creatinine, and urinary volume.
Renal Histology: Kidneys will be fixed in 10% neutral-buffered formalin and embedded in paraffin wax for sectioning. Three-micron sections will be stained with periodic acid-Schiff (PAS) and analyzed by light microscopy.

Sprague Dawley rats = assay: Example 54: metabolic syndrome (HFD/STZ); assay type: in vivo, rat; conditions: 10 weeks of administration
Experimental: Sprague Dawley rats will be fed with a high-fat diet (HFD) for 6 weeks and then administered a single dose of STZ (30 mg/kg). The rats will be maintained on HFD until 14 weeks after STZ administration. Control subjects fed normal rat chow (NRC) for 6 weeks will be administered citrate buffer without STZ. After 5 months, diabetic subjects will be treated with peptide conjugates (10 mg/kg, 3 mg/kg, or 1 mg/kg s.c.q.d. (subcutaneously, once daily)), aromatic-cationic peptides (an equivalent molar dose of aromatic-cationic peptide based on the concentration of the aromatic-cationic peptide administered in the peptide conjugate group), SPN10(s) (an equivalent molar dose of SPN10 based on the concentration of SPN10 administered in the peptide conjugate group), SPN10(s) in combination with aromatic-cationic peptides (e.g., an equivalent molar dose of SPN10 based on the concentration of SPN10 administered in the peptide conjugate treatment group and an equivalent molar dose of aromatic-cationic peptide based on the concentration of aromatic-cationic peptide administered in the peptide conjugate treatment group) or control vehicle (saline) 5 days per week for 10 weeks. The study groups will be as follows: • Group A: HFD/STZ+peptide conjugates 10 mg/kg s.c.q.d. (Mon-Fri.), n=12; • Group B: HFD/STZ+peptide conjugates 3 mg/kg s.c.q.d. […]

cytochrome c = cytochrome c (Homo sapiens, UniProt P99999); assay: Kinetics of cytochrome c reduction (absorbance at 550 nm); assay type: biochemical
Source text: It is hypothesized that the distribution of SPN10(s) or peptide conjugates among the protein complexes in the IMM allows it to serve as additional an relay station to facilitate ET. […] Addition of N-acetylcysteine (NAC) as a reducing agent is anticipated to result in time-dependent increase in absorbance at 550 nm.

Chain of cytochrome c (P99999 whole entry, species assumed): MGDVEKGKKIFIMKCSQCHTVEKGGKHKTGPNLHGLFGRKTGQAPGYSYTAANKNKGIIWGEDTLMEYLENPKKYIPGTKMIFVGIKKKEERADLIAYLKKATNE

N=C(N)NCCC[C@H](NC(=O)[C@@H](N)Cc1c[nH]c2ccccc12)C(=O)N[C@@H](Cc1c[nH]c2ccccc12)C(=O)N[C@@H](CCCCN)C(N)=O [SPN10, H-L-Trp-L-Arg-L-Trp-L-Lys-NH2] (H-WRWK-NH2)
increase in BUN after cisplatin (Sprague-Dawley rats): attenuate or prevent this effect | increase in serum creatinine after cisplatin (Sprague-Dawley rats): attenuate or prevent this effect | reduction in body weight after cisplatin (Sprague-Dawley rats): attenuate or prevent this effect | blood triglyceride level of HFD/STZ rats (Sprague Dawley rats): reduced to normal levels | reduction of cytochrome c by compound alone (cytochrome c; 100 μM, without NAC): will not reduce cytochrome c | rate of NAC-induced cytochrome c reduction (cytochrome c; with N-acetylcysteine (NAC)): dose-dependently increase
